# What was measured:
# EED = EED (Homo sapiens, UniProt O75530); experiment: EED TR-FRET Binding Assay (modified LanthaScreen competition assay)
# How it was run: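 Competition binding in a modified LanthaScreen format, in 20 mM Tris-HCl pH 7.5, 200 mM NaCl, 0.01% Tween-20, 10 uM DTT and 0.05% BSA. Reactions ran 1 hour at 25° C before TR-FRET detection.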
# [1] = test system: H3K27me3 in OCILY19 cells; experiment: H3K27me3 AlphaLISA assay in OCILY19 cells; assay type: cell-based; settings: Homo sapiens, OCI-LY19, 144 h, 6 days with compound, read-out: OCILY-19 IC50
# Experimental: 5,000 cells were plated into each well of 96-well Corning CellBing cell culture plates and incubated overnight at 37° C. in a humidified CO2 incubator. […] The cell culture plates were then incubated for 6 more days. H3K27me3 AlphaLISA assay was performed on the cell culture samples by using AlphaLISAR® H3K27me3 Cellular Detection Kit (PerkinElmer) and 96-well white half-area plates (PerkinElmer).
# H3K27me3 in G401 cells = experiment: H3K27me3 AlphaLISA assay in G401 cells; assay type: cell-based; settings: Homo sapiens, G-401, 144 h, 6 days with compound
# Pfeiffer cells = experiment: CTG cell viability assay (CellTiter-Glo); assay type: cell-based; settings: Homo sapiens, 240 h; Pfeiffer cells, 10 days with compound, CellTiter-Glo; read-out: Cell Proliferation IC50
# Experimental: 1,000 cells were plated into each well of 96-well Corning CellBing cell culture plates and incubated overnight at 37° C. in a humidified CO2 incubator. […] The cell culture plates were then incubated for 10 more days. CTG cell viability assay was performed on the cell culture samples by using CellTiter-Glo® Luminescent Cell Viability Assay Kit (Promega).
# Sequence of EED (O75530 whole entry): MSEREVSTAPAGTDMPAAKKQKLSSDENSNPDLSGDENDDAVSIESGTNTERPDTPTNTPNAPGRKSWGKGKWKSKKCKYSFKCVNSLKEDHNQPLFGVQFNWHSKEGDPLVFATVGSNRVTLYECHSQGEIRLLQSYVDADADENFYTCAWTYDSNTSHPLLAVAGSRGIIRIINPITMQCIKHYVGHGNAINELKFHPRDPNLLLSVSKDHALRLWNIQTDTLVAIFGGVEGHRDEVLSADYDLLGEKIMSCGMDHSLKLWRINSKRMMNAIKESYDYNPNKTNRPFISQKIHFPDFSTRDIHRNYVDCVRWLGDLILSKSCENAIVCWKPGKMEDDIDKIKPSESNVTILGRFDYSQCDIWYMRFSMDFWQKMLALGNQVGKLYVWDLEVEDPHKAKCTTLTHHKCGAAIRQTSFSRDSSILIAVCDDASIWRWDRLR
SMILES,IC50 (EED),IC50 [1],IC50 (H3K27me3 in G401 cells),IC50 (Pfeiffer cells)
"Cc1n[nH]c(C)c1S(=O)(=O)N1CCN(C(=O)c2cccc3c([C@H]4CN(C5CCc6cccc(F)c65)C[C@@H]4N(C)C)cn(C)c23)CC1 (mixture of isomers) [Example 136, rac-{3-[(3S,4R)-4-(dimethylamino)-1-(7-fluoro-2,3-dihydro-1H-inden-1-yl)pyrrolidin-3-yl]-1-methyl-1H-indol-7-yl}[4-(3,5-dimethyl-1H-pyrazole-4-sulfonyl)piperazin-1-yl]methanone]",2.05 nM,617 nM,332 nM,1520 nM
"CN(C)[C@H]1CN(C2CCc3cccc(F)c32)C[C@@H]1c1cn(C)c2c(C(=O)N3CCN(S(=O)(=O)N4CC(C#N)C4)CC3)cccc12 (stereo partly drawn) [Example 133, 1-(4-{3-[(3S,4R)-4-(dimethylamino)-1-(7-fluoro-2,3-dihydro-1H-inden-1-yl)pyrrolidin-3-yl]-1-methyl-1H-indole-7-carbonyl}piperazine-1-sulfonyl)azetidine-3-carbonitrile]",1.45 nM,206 nM,61.5 nM,133 nM
"CNC(=O)c1ccc(N2CCC([C@H]3CN(C4CCc5cccc(F)c54)C[C@@H]3N(C)C)CC2)nc1 (mixture of isomers) [Example 154, rac-6-{4-[(3S,4R)-4-(dimethylamino)-1-(7-fluoro-2,3-dihydro-1H-inden-1-yl)pyrrolidin-3-yl]piperidin-1-yl}-N-methylpyridine-3-carboxamide]",1.98 nM,493 nM,372 nM,455 nM

# Molecules with a lower IC50 (EED), results first:
IC50 (EED),IC50 [1],IC50 (H3K27me3 in G401 cells),SMILES,IC50 (Pfeiffer cells)
1.13 nM,155 nM,52.1 nM,"CN(C)[C@H]1CN(C2CCc3cccc(F)c32)C[C@@H]1c1ccc(-c2cnn(CC(N)=O)c2)cc1 (mixture of isomers) [Example 71, rac-2-(4-{4-[(3S,4R)-4-(dimethylamino)-1-(7-fluoro-2,3-dihydro-1H-inden-1-yl)pyrrolidin-3-yl]phenyl}-1H-pyrazol-1-yl)acetamide]",108 nM
0.853 nM,248 nM,129 nM,"CN(C)[C@H]1CN(C2CCc3cccc(F)c32)C[C@@H]1c1ccc(-c2cnn(C)c2)cc1 (mixture of isomers) [Example 70, rac-(3R,4S)-1-(7-fluoro-2,3-dihydro-1H-inden-1-yl)-N,N-dimethyl-4-[4-(1-methyl-1H-pyrazol-4-yl)phenyl]pyrrolidin-3-amine]",266 nM
0.481 nM,178 nM,62.6 nM,"CN(C)C(=O)c1ccc2c([C@H]3CN(C4CCc5cccc(F)c54)C[C@@H]3N(C)C)cn(C)c2c1 (mixture of isomers) [Example 87, rac-3-[(3S,4R)-4-(dimethylamino)-1-(7-fluoro-2,3-dihydro-1H-inden-1-yl)pyrrolidin-3-yl]-N,N,1-trimethyl-1H-indole-6-carboxamide]",94.1 nM
